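These data come from cells grown in 96-well plates and exposed to compound for 48 hours at five concentrations. GI50: concentration for 50% inhibition of growth.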 Calls of active or inactive are those of the source. No stated cut-off is given here; in the data, active = GI50 up to about 1.1 µM and inactive = higher.
Legend:
Experiment in all cases: growth of human tumour cells (NCI), 48 h
[1] = system: HL-60
[2] = system: MOLT-4
[3] = system: Hs-578T
[4] = system: RPMI-8226
[5] = system: SK-MEL-28
[6] = system: NCI-H23
[7] = system: RXF 393
[8] = system: EKVX
[9] = system: SF-295
[10] = system: HOP-62
[11] = system: SK-OV-3
[12] = system: MCF7
[13] = system: OVCAR-4
[14] = system: MDA-MB-435
[15] = system: NCI/ADR-RES
[16] = system: CCRF-CEM
[17] = system: UO-31
[18] = system: NCI-H460
[19] = system: PC-3
[20] = system: A549
[21] = system: HCC 2998
[22] = system: SW-620
[23] = system: OVCAR-8
[24] = system: NCI-H522
[25] = system: UACC-257
[26] = system: IGROV-1
[27] = system: KM12
[28] = system: M14
[29] = system: SR
[30] = system: HT-29
[31] = system: U-251
[32] = system: SK-MEL-5
[33] = system: HCT-15
[34] = system: ACHN
[35] = system: BT-549
[36] = system: OVCAR-5
[37] = system: SK-MEL-2
[38] = system: SNB-75
[39] = system: TK-10
[40] = system: NCI-H226
[41] = system: OVCAR-3
[42] = system: SF-539
[43] = system: CAKI-1
[44] = system: K562
[45] = system: COLO 205
[46] = system: HOP-92
[47] = system: MDA-MB-231
[48] = system: SF-268
[49] = system: UACC-62
[50] = system: Malme-3M
[51] = system: SNB-19
[52] = system: 786-0
[53] = system: HCT-116
[54] = system: SN12C
[55] = system: MDA-N
[56] = system: DU-145
[57] = system: A498
[58] = system: LOX IMVI

Cc1cccc(/N=N/c2ccc(/N=N/c3c(O)ccc4ccccc34)cc2C)c1
GI50 [1]: 33.5 µM (inactive) | GI50 [2]: > 100 µM (inactive) | GI50 [3]: 33.9 µM (inactive) | GI50 [4]: > 100 µM (inactive) | GI50 [5]: > 100 µM (inactive) | GI50 [6]: > 100 µM (inactive) | GI50 [7]: 27 µM (inactive) | GI50 [8]: 84.7 µM (inactive) | GI50 [9]: 44.2 µM (inactive) | GI50 [10]: 22.4 µM (inactive) | GI50 [11]: 28.4 µM (inactive) | GI50 [12]: > 100 µM (inactive) | GI50 [13]: > 100 µM (inactive) | GI50 [14]: > 100 µM (inactive) | GI50 [15]: 13.4 µM (inactive) | GI50 [16]: > 100 µM (inactive) | GI50 [17]: > 100 µM (inactive) | GI50 [18]: > 100 µM (inactive) | GI50 [19]: 88.3 µM (inactive) | GI50 [20]: 80 µM (inactive) | GI50 [21]: > 100 µM (inactive) | GI50 [22]: > 100 µM (inactive) | GI50 [23]: 7.05 µM (inactive) | GI50 [24]: 14.2 µM (inactive) | GI50 [25]: > 100 µM (inactive) | GI50 [26]: > 100 µM (inactive) | GI50 [27]: > 100 µM (inactive) | GI50 [28]: 41.7 µM (inactive) | GI50 [29]: 21.4 µM (inactive) | GI50 [30]: > 100 µM (inactive) | GI50 [31]: 54.2 µM (inactive) | GI50 [32]: > 100 µM (inactive) | GI50 [33]: > 100 µM | GI50 [34]: 49.3 µM (inactive) | GI50 [35]: > 100 µM (inactive) | GI50 [36]: > 100 µM (inactive) | GI50 [37]: > 100 µM (inactive) | GI50 [38]: 0.144 µM (active) | GI50 [39]: > 100 µM (inactive) | GI50 [40]: > 100 µM (inactive) | GI50 [41]: > 100 µM (inactive) | GI50 [42]: 36.2 µM (inactive) | GI50 [43]: 40.2 µM (inactive) | GI50 [44]: > 100 µM (inactive) | GI50 [45]: > 100 µM (inactive) | GI50 [46]: 32.2 µM (inactive) | GI50 [47]: > 100 µM (inactive) | GI50 [48]: > 100 µM (inactive) | GI50 [49]: 72.4 µM (inactive) | GI50 [50]: 2 µM (inactive) | GI50 [51]: 38.2 µM (inactive) | GI50 [52]: 83.6 µM (inactive) | GI50 [53]: > 100 µM (inactive)

CCOC(=O)C1=C(C)N(c2ccc(C)cc2)C2(O)C=CC(O)=C3C(=O)c4ccccc4C(=O)C312 (stereo unspecified)
GI50 [1]: < 0.01 µM (active) | GI50 [2]: 0.374 µM (active) | GI50 [54]: 32.4 µM (inactive) | GI50 [55]: 21.1 µM (inactive) | GI50 [4]: 11.1 µM (inactive) | GI50 [5]: 24.9 µM (inactive) | GI50 [6]: 38.4 µM (inactive) | GI50 [7]: 28.8 µM (inactive) | GI50 [8]: 39.3 µM (inactive) | GI50 [9]: 68.1 µM (inactive) | GI50 [10]: > 100 µM (inactive) | GI50 [11]: 35.7 µM (inactive) | GI50 [12]: 23.3 µM (inactive) | GI50 [13]: 25 µM (inactive) | GI50 [14]: 36.2 µM (inactive) | GI50 [15]: 8.24 µM (inactive) | GI50 [16]: 5.05 µM (inactive) | GI50 [17]: 17.7 µM (inactive) | GI50 [18]: 34.2 µM (inactive) | GI50 [19]: 25.1 µM (inactive) | GI50 [20]: 37.8 µM (inactive) | GI50 [21]: 29.3 µM (inactive) | GI50 [56]: 23.6 µM (inactive) | GI50 [22]: 28.1 µM (inactive) | GI50 [57]: 29.4 µM (inactive) | GI50 [23]: 21.6 µM (inactive) | GI50 [24]: 16.1 µM (inactive) | GI50 [25]: 22.9 µM (inactive) | GI50 [26]: 19.5 µM (inactive) | GI50 [27]: 35.6 µM (inactive) | GI50 [28]: 36.6 µM (inactive) | GI50 [29]: 0.635 µM (active) | GI50 [30]: 25 µM (inactive) | GI50 [31]: 39.7 µM (inactive) | GI50 [32]: 19.7 µM (inactive) | GI50 [33]: 22.8 µM | GI50 [34]: 22.7 µM (inactive) | GI50 [35]: 19.2 µM (inactive) | GI50 [36]: 54.2 µM (inactive) | GI50 [37]: 37.1 µM (inactive) | GI50 [38]: 24.1 µM (inactive) | GI50 [39]: 44 µM (inactive) | GI50 [40]: 59.3 µM (inactive) | GI50 [41]: 34.9 µM (inactive) | GI50 [42]: 22.2 µM (inactive) | GI50 [58]: 25.2 µM (inactive) | GI50 [43]: 32.2 µM (inactive) | GI50 [45]: 32.4 µM (inactive) | GI50 [46]: 19.3 µM (inactive) | GI50 [47]: 34.4 µM (inactive) | GI50 [48]: 45.2 µM (inactive) | GI50 [49]: 33.1 µM (inactive) | GI50 [50]: 20.6 µM (inactive) | GI50 [51]: 24.4 µM (inactive) | GI50 [52]: 33.9 µM (inactive) | GI50 [53]: 48.5 µM (inactive)

COc1cc(CNc2nc3cc(N)cc(N)c3nc2-c2ccccc2)cc(OC)c1
GI50 [4]: 2.2 µM (inactive) | GI50 [25]: 26.1 µM (inactive)

Source: ChEMBL document CHEMBL1201862, “PubChem BioAssay data set” (2004)
